Results: US20190358176A1, “METHODS OF SENSITIZING CANCER CELLS TO IMMUNE CELL KILLING” (University of Pittsburgh - of the Commonwealth System of …, priority 2017, published 2019)
Like-named read-outs stand apart in the source and are kept apart here.

Assays:
MDA-MB-231 cells [1] = assay: HCA of cell motility and cytotoxicity (Oris Pro 384 cell migration plate); format: cell-based, human; conditions: 48 hours, at antimigratory concentrations
Method: HCA of cell motility and cytotoxicity was performed essentially as described (51). MDA-MB-231 cells (15,000/well) were plated in collagen-coated Oris™ Pro 384-well microplates (Platypus Technologies cat # PRO384CMACCS) containing a chemical exclusion zone that dissolves upon cell seeding. Two hours after plating, medium was removed, and cells treated with ten-point, two-fold concentration gradients of test agents. Forty-eight hours after treatment, cells were stained with 10 μg/ml Hoechst 33342 and 1 μg/ml PI in HBSS for 15 min at 37° C. Plates were washed once with PBS and scanned live on the ArrayScan II using a 5× objective. To capture cells that had entered into the exclusion zone, a single field was acquired in the center of the well and nuclei therein enumerated. To assess changes in cell loss, nuclear size, and necrotic cell death, a second scan was performed that captured one field at the edge of the well (51). Parameters exported and plotted were SelectedObjectCountPerValidField (cell density), MEAN ObjectAreaCh1 (nucleus size), and % RESPONDER MeanAvgIntenCh2 (percent PI positive cells based on based on a threshold set with vehicle treated cells).

rat hepatocytes [2] = assay: Hepatocyte mitochondrial function (TMRE staining); format: cell-based
Method: (§1) Rat hepatocytes were isolated using standard two step collagenase digestion (15) and sub-cultivated at 14,000 hepatocytes/well in collagen-1 coated 384 well plates in Williams E Medium supplemented with 10% FBS, 2 mM L-glutamine and 50 U/ml Penicillin and streptomycin. After 4 hours, medium was decanted and replaced with Hepatocyte Maintenance Media (Williams E supplemented with 1.25 mg/ml bovine serum albumin, 6.25 μg/ml human insulin, 100 nM dexamethasone, 6.25 μg/ml human transferrin, 6.25 ng/ml selenous acid, 2 mM L-glutamine, 15 mM HEPES, 100 U/mL penicillin, and 100 U/mL streptomycin). After overnight culture, cells were treated with concentration gradients of test agents. One hour after compound addition, cells were labeled with 200 nM TMRE and 4 μg/ml Hoechst 33342 for 45 min, imaged live on an ArrayScan VTI using a 10× objective, and images were analyzed with the Compartmental Bioapplication. Mitochondria were identified as cytosolic spots by size and brightness. The final parameter was % HIGH RingSpotAvgIntenCh2 (i.e., percentage of cells with TMRE puncta in the cytoplasm based on a threshold set with vehicle treated cells).

MDA-MB-231 cells [3] = assay: HCA of apoptosis and ERK phosphorylation (multiparametric: nuclear condensation, caspase-3 cleavage, ERK phosphorylation); format: cell-based, human; conditions: for IC50: Homo sapiens, 24 hours
Method: MDA-MB-231 cells (10,000/well) were treated with identical concentration gradients of test agents on the right and left half of a 384 well microplate for later assessment of potential compound autofluorescence. After 24 hours, cells were fixed, permeabilized with 0.2% Triton X-100, blocked with 1% BSA/PBS, and immunostained with anti-phospho-ERK (E10, CST cat#9106L)/AlexaFluor488 and anti-cleaved caspase-3 (CST cat#9664L)/AlexaFluor594 primary/secondary antibody pairs. Plates were imaged on the ArrayScan II using a 10×0.5NA objective. Each well was background corrected by subtracting mean phospho-ERK and cleaved caspase-3 intensities from wells that had received secondary antibody only. Data in Table 1 are the averages of the indicated numbers of independent experiments, each performed in quadruplicate. IC50, standard error, and 95% confidence intervals were calculated by […] in GraphPad Prism.
Multiple data points were analyzed in GraphPad Prism by one-way ANOVA using Dunnett's multiple comparison test. EC50/IC50 values were obtained from at least three independent experiments by non-linear regression using a four parameter logistic equation. IC50, standard error, and 95% confidence intervals were calculated in GraphPad.

[4] = test system: ERK, JNK/SAPK, p38, MEK1 and MKK4/SEK1 phosphorylation; assay: Western blot of MAPK cascade phosphorylation; format: cell-based, human; conditions: MDA-MB-231 cells, 20 μM
[5] = test system: DUSP6/MKP-3 and DUSP1/MKP-1; conditions: HeLa cells, prior study (12); cited from earlier work
rat hepatocytes [6] = assay: Five-day hepatocyte toxicity (PI positive cells); format: cell-based
Method: as §1
A gelling solution of 1.25 mg/ml rat tail collagen type I in pH 7.2 90:10 (v/v) Williams E media/10×HBSS was overlaid onto the rat hepatocytes. The collagen gel was incubated for 1 hour at 37° C., 5% CO2. The collagen sandwich cultures were then challenged for 5 days to test compounds in Hepatocyte Maintenance Media, without refeeding. A 10× solution of 40 μg/ml Hoechst 33342 was added during the final 2 hours of incubation followed by a 10× solution of 20 μg/ml PI for 1 hour. Cells were imaged and the percentage of PI positive cells calculated as above.

NCI 60 cell line panel = conditions: NSC150117, last tested June 2016; cited from earlier work
MDA-MB-231 cells [7] = assay: Detection and quantitation of ROS in cancer cells (CM-H2-DCFDA); format: cell-based, human; conditions: for EC50: read-out: EC50 of ROS generation
Method: Detection and quantitation of ROS in cancer cells was performed as described before (14). Briefly, MDA-MB-231 cells were labeled with Hoechst 33342, loaded with CM-H2-DCFDA (5 μM, 15 min), and treated with test agents for 10 min. After two washes, cells were analyzed for Hoechst and ROS/FITC fluorescence on the ArrayScan II. Cells were classified as positive for ROS if their average FITC intensity exceeded a threshold defined as the average FITC intensity plus one SD from DMSO-treated wells.

[8] = test system: patient-derived pre-B acute lymphoblastic leukemia (pre-B-ALL) cells; conditions: literature (46); cited from earlier work
MDA-MB-231 cells [9] = assay: Toxicity reversal (rescue from BCI-215 toxicity by MAPK inhibitors); format: cell-based, human; conditions: MAPK inhibitor pre-incubation, then BCI-215 25 μM, 24 hours
Method: Cells were pre-treated (30 min for SCH772984, SP600125, SB203580, and 3 hours for JNK-IN-8) with identical concentration gradients of MAPK inhibitors on the right and left halves of a 384 well microplate. After preincubation, half of the microplate was treated with vehicle (DMSO), the other with a pro-apoptotic concentration of BCI-215 (25 μM). To eliminate potential bias through plate/edge effects, an independent plate was prepared in parallel where vehicle and BCI-215 treatments were reversed. Twenty-four hours thereafter, plates were stained with Hoechst 33342, washed once, and imaged on the ArrayScan II using a 10× objective for analysis for cell numbers and nuclear morphology. Plates were subsequently immunostained with a cleaved caspase-3/Cy5-conjugated secondary antibody pair and analyzed for apoptosis on an ArrayScan VTI using a 20×0.75 NA objective. Four independent readouts were extracted and correlated: cell density (SelectedObjectCountPerValidField), nuclear condensation (MEAN_ObjectAvgIntenCh1), nucleus rounding (MEAN_ObjectShapeLWRCh1), and average cellular cleaved caspase-3 intensity (MEAN_AvgIntenCh2). For each parameter, data were normalized to vehicle (maximum rescue) and BCI-215 (no rescue) as % rescue=1−((data point−DMSO)/(DMSO-BCI-215))*100.

cellular MAPK activity = conditions: literature value; cited from earlier work
MDA-MB-231 cells [10] = assay: Immune cell killing (sensitization to PBMC-derived LAK); format: cell-based, human; conditions: pre-treated 24 hours: BCI-215 3 μM, cisplatin 2 μM, doxorubicin 400 nM
Method: Peripheral blood mononuclear cells were obtained from healthy volunteers with an established IRB approved protocol, separated from heparinized blood on Ficoll-hypaque (GE Healthcare, Chicago) gradients as previously reported (16). Cells were cultured in RPMI 1640 supplemented with 10% FCS, 1% glutamine, 1% penicillin/streptomycin, and stimulated with 6,000 IU of Interleukin 2 for 24 hours. After incubation, cells were washed with PBS and counted. In parallel, MBA-MB-231 cells were pre-treated in a 384 well plate with vehicle or BCI-215 (3 μM). After 24 hours in culture, medium was replaced and PBMC added in two-fold serial dilutions starting with a 50-fold excess of PBMCs in triplicate. After 24 hours of co-culture, cells were fixed with formaldehyde/Hoechst 33342, washed twice with PBS, and imaged on the ArrayScan II. Cancer cells were identified by their larger nuclei compared with PBMC, setting a size gate in the DAPI channel. In experiments with chemotherapeutics, cells carrying a biosensor consisting of a mitochondrial targeting sequence derived from cytochrome c oxidase VIII linked to GFP that is a surrogate for cytochrome c release from mitochondria (17) were pre-treated for 24 hours with cisplatin (2 μM) or doxorubicin (400 nM), exposed to LAK as above, and cancer cells identified and quantified by green fluorescence. Cell densities were normalized to those in the absence of PBMCs. Mean cell densities from multiple independent experiments were averaged and plotted in GraphPad Prism.

[11] = rat hepatocytes, 5-day exposure

For `O=C1/C(=C/c2ccccc2)C(NC2CCCCC2)c2ccccc21` (centres unmarked) [BCI, (E)-2-benzylidene-3-(cyclohexylamino)-2,3-dihydro-1H-inden-1-one], the “necrosis (% PI positive cells)” value (MDA-MB-231 cells [1]) was “Necrosis was reduced”, the “mitochondrial membrane integrity / potential (TMRE)” value (rat hepatocytes [2]) was “did not affect mitochondrial potential” and the nuclear morphology (MDA-MB-231 cells [3]; BCI and BCI-215 at 22 μM) was “shrunken, condensed nuclei that resembled pyknosis”. The IC50 (MDA-MB-231 cells [3]; induction of phospho-ERK, read-out: IC50 ERK phosphorylation) was 8.59 µM, the IC50 (MDA-MB-231 cells [3]; read-out: IC50 Caspase-3 cleavage) was 9.17 µM and the IC50 (MDA-MB-231 cells [3]; read-out: IC50 Nuclear condensation) was 12.8 µM. The “activation (phosphorylation) of ERK, JNK/SAPK and p38” value [4] was “activated all three kinases”, the “effect on ectopic DUSP6/MKP-3 and DUSP1/MKP-1 expression” value [5] was “override the effects” and the “hepatocyte toxicity, cell death (PI positive cells)” value (shortened to “hepatocyte toxicity, cell death”) (rat hepatocytes [6]; [11]) was “caused cell death”. For the same molecule, the GI50 (NCI 60 cell line panel) was 1.84 µM, the EC50 (MDA-MB-231 cells [7]; Homo sapiens) was 20 µM and the “cell death in pre-B-ALL cells” value [8] was “selectively induced cell death”.
For `Cc1cc(NC(=O)c2cccc(NC(=O)/C=C/CN(C)C)c2)ccc1Nc1nccc(-c2cccnc2)n1` [JNK-IN-8], the “reversal of BCI-215-induced cell loss, nuclear morphology changes and apoptosis” value (MDA-MB-231 cells [9]) is given as “no effect” and the “published concentration reported to inhibit cellular MAPK activity” value (cellular MAPK activity) is given as 0.5 µM.
For `O=C1C(SCCO)=C(SCCO)C(=O)c2ccccc21` [NSC95397], the “necrosis (% PI positive cells)” value (MDA-MB-231 cells [1]) was “caused necrosis at antimigratory concentrations”, the “mitochondrial membrane integrity / potential (TMRE)” value (rat hepatocytes [2]) was “loss of mitochondrial membrane integrity” and the “hepatocyte toxicity, cell death” value (rat hepatocytes [6]; [11]) was “caused cell death”. The “time to ROS generation” value (MDA-MB-231 cells [7]) was at most 30 min and the EC50 (MDA-MB-231 cells [7]) was 3 to 5 µM.
For `C[S+]([O-])c1ccc(-c2nc(-c3ccncc3)c(-c3ccc(F)cc3)[nH]2)cc1` (centres unmarked) [SB203580], the “reversal of BCI-215-induced cell loss, nuclear morphology changes and apoptosis” value (MDA-MB-231 cells [9]) is given as “partially reversed” and the “published concentration reported to inhibit cellular MAPK activity” value (cellular MAPK activity) is given as 10 µM.
For `O=C(Nc1ccc2[nH]nc(-c3ccncc3)c2c1)[C@@H]1CCN(CC(=O)N2CCN(c3ccc(-c4ncccn4)cc3)CC2)C1` [SCH772984], the “reversal of BCI-215-induced cell loss, nuclear morphology changes and apoptosis” value (MDA-MB-231 cells [9]) is given as “no effect” and the “published concentration reported to inhibit cellular MAPK activity” value (cellular MAPK activity) is given as 0.03 µM.
In the case of `N.N.[Cl][Pt][Cl]` [cisplatin], the “sensitization to LAK activity” value (MDA-MB-231 cells [10]) is reported as “sensitized cells to LAK activity”.
With `COc1cccc2c1C(=O)c1c(O)c3c(c(O)c1C2=O)C[C@@](O)(C(=O)CO)C[C@@H]3O[C@H]1C[C@H](N)[C@H](O)[C@H](C)O1` [doxorubicin] the “sensitization to LAK activity” value (MDA-MB-231 cells [10]) was “sensitized cells to LAK activity”.
For `CC1=CC(=O)c2ccccc2C1=O` [menadione], the “mitochondrial membrane integrity / potential (TMRE)” value (rat hepatocytes [2]) was “loss of mitochondrial membrane integrity” and the “hepatocyte toxicity, cell death” value (rat hepatocytes [6]) was “caused cell death”.
In the case of `C[n+]1cc2c3c(ccc2c2ccc4cc5c(cc4c21)OCO5)OCO3` [sanguinarine], the “mitochondrial membrane integrity / potential (TMRE)” value (rat hepatocytes [2]) is reported as “loss of mitochondrial membrane integrity” and the “hepatocyte toxicity, cell death” value (rat hepatocytes [6]; [11]) is reported as “caused cell death”.
